Like-named read-outs stand apart in the source and are kept apart here.
What was measured:
[1] = biological target: SARS-CoV2 NSP14/NSP10 exonuclease (Severe acute respiratory syndrome coronavirus 2 (2019-nCoV) (SARS-CoV-2), UniProt P0DTD1); test: biochemical; design: inhibition of NSP14/NSP10 complex exonuclease activity: dose or concentration left out as unconfirmed; conditions: for Inhibitory activity present: class symbols − to +++++, key not given
[2] = biological target: NSP14/10 complex (Severe acute respiratory syndrome coronavirus 2 (2019-nCoV) (SARS-CoV-2), UniProt P0DTD1); test: Gel electrophoresis assay of Oligo B digestion; assay type: biochemical; conditions: for NSP14/NSP10 complex inhibitory potential (gel): concentrations as in FIG. 55
[3] = system: unbound NSP10; test: FRET-based activity assay, non-specific background of unbound NSP10; assay type: biochemical; conditions: dose-response, FIG. 11B
[4] = system: A549 cells; test: AlamarBlue viability assay; conditions: A549 human lung cells, 48 hours
[5] = Solubility issue (Table 2)
[6] = system: SARS-CoV2; assay type: cell-based; conditions: A549-ACE2 cells; #112: 60 μM, #77: […] μM, #68: 25 μM
[7] = system: HCoV-OC43; test: HCoV-OC43 infection of HMC3 cells, combination with remdesivir; assay type: cell-based; conditions: #112: 60 μM, #77: […] μM, #68: 25 μM
[8] = system: A549 cells
[9] = Table 2, read-out: SARS-CoV2 IC50
[10] = Oligo D, linear reaction range, less than 60% of total substrate consumed at readout, read-out: half maximal inhibitory concentration (IC50)

O=C1Cc2ccccc2C(=O)N1O [Compound 13, 2-Hydroxyisoquinoline-1,3(2H,4H)-dione]
inhibition of NSP14/NSP10 complex exonuclease activity ([1]; Oligo E (TexasRed-BHQ2)): showed inhibition | Inhibition of NSP14/10 (Oligo B digestion, gel) ([2]; 500 μM versus 100 μM): greater at higher (500 μM) versus lower (100 μM) concentrations | inhibition of non-specific background of NSP10 [3]: did not inhibit the non-specific background of NSP10 | Toxicity at IC50 [4]: Yes

O=c1oc2ccccc2c(O)c1Cc1c(O)c2ccccc2oc1=O [Compound 23, Dicoumarol, reference compound]
IC50 [1, 9]: > 500 µM

O=C(O)c1cc(Cc2ccc(O)c(C(=O)O)c2)ccc1O [Compound 30, 5,5′-Methylenedisalicylic acid]
Toxicity at IC50 [4]: No

O=C(NCc1ncc[nH]1)c1c(O)cnc2ccccc12 [Compound 31, 3-Hydroxy-N-[(1H-imidazol-2-yl)methyl]quinoline-4-carboxamide]
Toxicity at IC50 [4]: No

O=C(O)c1cc2cc(-c3ccccc3)ccc2[nH]c1=O [Compound 53, 2-Oxo-6-phenyl-1H-quinoline-3-carboxylic acid]
Toxicity at IC50 [4]: no

Oc1ccc(CC2NCCc3cc(O)c(O)cc32)cc1O (stereo not shown) [Compound 54, Tetrahydropapaveroline]
NSP14/NSP10 complex inhibitory potential (gel) [2]: indeed novel NSP14 inhibitors | Solubility issue [5]: no | Toxicity at IC50 [4]: no

CC(C)=CCc1cc(C(=O)/C=C/c2ccc(O)cc2)c(O)cc1O [Compound 57, Bavachalcone]
Toxicity at IC50 [4]: yes

COc1cc(O)c(CC=C(C)C)c(O)c1C(=O)/C=C/c1ccc(O)cc1 [Compound 58, Xanthohumol]
Toxicity at IC50 [4]: yes

O=C(O)c1c(O)c(Cc2ccc(Cl)cc2)nc2c3c(ccc12)CCCC3 [Compound 59, 2-(4-Chlorobenzyl)-3-hydroxy-7,8,9,10-tetrahydrobenzo(H)quinoline-4-carboxylic acid]
Toxicity at IC50 [4]: yes

Cc1c(S(=O)(=O)[O-])oc2c1C(=O)C(=O)c1c-2ccc2c1CCCC2(C)C.[Na+] [Compound 60, Tanshinone IIA sulfonate]
Solubility issue [5]: no | Toxicity at IC50 [4]: no

O=c1cc(-c2ccc(O)cc2)oc2cc(O)c(O)c(O)c12 [Compound 62, Scutellarein]
Toxicity at IC50 [4]: no

CC(C)c1cc(Cc2cc(C(C)C)cc(C(=O)O)c2O)c(O)c(C(=O)O)c1 [Compound 65, 3-[(3-Carboxy-2-hydroxy-5-propan-2-ylphenyl)methyl]-2-hydroxy-5-propan-2-ylbenzoic acid]
Toxicity at IC50 [4]: no

CC(C)=CCOc1ccc(/C=C/C(=O)c2ccc(OCC=C(C)C)cc2OCC(=O)O)cc1 [Compound 68, Sofalcone, reference compound]
IC50 ([1]; read-out: SARS-CoV2 IC50): 22 ± 6.02 µM | NSP14/NSP10 complex inhibitory potential (gel) [2]: indeed novel NSP14 inhibitors | lowering of the EC50 values of remdesivir [6]: ~5 fold | lowering of the EC50 values of remdesivir [7]: ~5 fold | Toxicity at IC50 [8]: Some

CC(C)=CCc1c2c(c3occ(-c4ccc(O)c(O)c4)c(=O)c3c1O)C=CC(C)(C)O2 [Compound 69, Pomiferin]
Toxicity at IC50 [8]: Yes

CC(C)=CCc1c(O)cc(O)c(C(=O)/C=C/c2ccc(O)cc2)c1O [Compound 71, Desmethylxanthohumol]
Inhibitory activity present [1]: +++/ ++++ | Toxicity at IC50 [4]: Yes

CC(C)=CCc1c(O)ccc(C(=O)/C=C/c2ccc(O)c(O)c2)c1O [Compound 72, Corylifol B]
Inhibitory activity present [1]: +++/ ++++

O=C(/C=C/c1ccc(O)cc1)c1c(O)cc(O)cc1O [Compound 73, Naringenin chalcone]
Toxicity at IC50 [4]: Yes

CC(C)=CCc1c(O)ccc(C(=O)/C=C/c2ccc(O)cc2O)c1O [Compound 74, Morachalcone A]
Toxicity at IC50 [4]: Yes

CC1(C)CCc2c(O)ccc(C(=O)/C=C/c3ccc(O)cc3)c2O1 [Compound 75, Isodorsmanin A]
Toxicity at IC50 [4]: Yes

O=C(/C=C/c1ccc(O)c(O)c1)c1ccc(O)c(O)c1O [Compound 76, Okanin]
Toxicity at IC50 [4]: Yes

CC(C)=CCc1c(O)ccc(C(=O)/C=C/c2ccc(O)cc2)c1O [Compound 77, Isobavachalcone]
IC50 ([1]; read-out: SARS-CoV2 IC50): 17.4 ± 1.39 µM | NSP14/NSP10 complex inhibitory potential (gel) [2]: indeed novel NSP14 inhibitors | lowering of the EC50 values of remdesivir [6]: ~5 fold | lowering of the EC50 values of remdesivir [7]: ~5 fold | Toxicity at IC50 [4]: some

Cc1ccc2ccc(C(=O)O)c(O)c2n1 [Compound 78, 2-methyl-8-hydroxyquinoline-7-carboxylic acid]
Toxicity at IC50 [4]: No

O=C(O)c1ccc2ccc(/C=C/c3ccc(O)c(O)c3)nc2c1O [Compound 79, 2-(3,4-dihydroxystyryl)-8-hydroxyquinoline-7-carboxylic acid]
Toxicity at IC50 [4]: No

O=C(O)c1ccc2ccc(/C=C/c3cc(Br)c(O)c(Br)c3)nc2c1O [Compound 88, 2-(3,5-dibromo-4-hydroxystyryl)-8-hydroxyquinoline-7-carboxylic acid]
Toxicity at IC50 [4]: No

O=C(O)c1ccc2ccc(/C=C/c3ccc(F)c(F)c3)nc2c1O [Compound 89, 2-(3,4-difluorostyryl)-8-hydroxyquinoline-7-carboxylic acid]
Toxicity at IC50 [4]: Yes

O=C(O)c1cc(/C=C/c2ccc3ccc(C(=O)O)c(O)c3n2)ccc1O [Compound 90, 2-(3-carboxy-4-hydroxystyryl)-8-hydroxyquinoline-7-carboxylic acid]
Toxicity at IC50 [4]: No

Oc1ccc(/C=C/c2ccc3cccc(O)c3n2)cc1O [Compound 92, 2-(3,4-dihydroxystyryl)-8-hydroxyquinoline]
Toxicity at IC50 [4]: Yes

O=C(c1ccc(F)c(F)c1)c1ccc2ccc(/C=C/c3ccc(O)c(O)c3)nc2c1O [Compound 93, 7-(3,4-difluorobenzoyl)-2-(3,4-dihydroxyvinyl)-8-hydroxyquinoline]
Toxicity at IC50 [4]: Yes

O=C(O)c1ccc2ccc(CCc3ccc(O)c(O)c3)nc2c1O [Compound 94, 2-(3,4-dihydroxyphenethyl)-8-hydroxyquinoline-7-carboxylic acid]
Toxicity at IC50 [4]: No

O=C(O)c1ccc2nc(/C=C/c3ccc(O)c(O)c3)ccc2c1O [Compound 99, 2-(3,4-dihydroxystyryl)-5-hydroxyquinoline-6-carboxylic acid]
Toxicity at IC50 [4]: Yes

O=P(O)(O)c1ccc2ccc(CCc3ccc(O)c(O)c3)nc2c1O [Compound 100, 2-(3,4-dihydroxyphenethyl)-8-hydroxyquinoline-7-phosphonic acid]
Toxicity at IC50 [4]: No

O=c1c2[nH]c3ccccc3c2ncn1CCc1ccc(F)cc1 [Compound 105, 3-[2-(4-Fluorophenyl)ethyl]-3,5-dihydro-4H-pyrimido[5,4-b]indol-4-one]
IC50 [1, 9]: 217 µM

COc1ccc2nc(O)c(-c3noc(-c4ccc(F)cc4)n3)cc2c1 [Compound 109, 3-(5-(4-Fluorophenyl)-1,2,4-oxadiazol-3-yl)-6-methoxyquinolin-2-ol]
Solubility issue [5]: No

O=C(NCc1ccc(F)cc1)C1C(=O)N(O)C(=O)c2cc(C(F)(F)F)ccc21 (stereo not shown) [Compound 112, 7-trifluoromethyl-N-(4-fluorobenzyl)-2-hydroxy-1,3-dioxo-4H-isoquinoline-4-carboxamide]
NSP14/NSP10 complex inhibitory potential (gel) [2]: indeed novel NSP14 inhibitors | lowering of the EC50 values of remdesivir [6]: ~5 fold | lowering of the EC50 values of remdesivir [7]: ~5 fold

O=c1oc2ccccc2c(O)c1Cc1c(O)c2ccccc2oc1=O [Dicoumarol]
IC50 [1, 10]: > 500 µM

CC(C)=CCc1c(O)ccc(C(=O)/C=C/c2ccc(O)cc2)c1O [Isobavachalcone]
IC50 [1, 10]: 16.6 µM

CC(C)=CCc1c2c(c3occ(-c4ccc(O)c(O)c4)c(=O)c3c1O)C=CC(C)(C)O2 [Pomiferin]
IC50 [1, 10]: 5.9 µM

CC(C)=CCOc1ccc(/C=C/C(=O)c2ccc(OCC=C(C)C)cc2OCC(=O)O)cc1 [Sofalcone]
IC50 [1, 10]: 28.8 µM

Source: patent US20250213569A1, “METHODS AND COMPOSITIONS FOR MEASURING AND INHIBITING EXONUCLEASE ACTIVITY” (priority 2020, published 2025)
